Consider four molecules from article PMC7004140, “In vitro hepatotoxicity of Petasites hybridus extract (Ze 339) depends on the concentration, the cytochrome activity of the cell system, and the species used” (Phytotherapy Research, 2019).

The test system of data set [1] is HepaRG cells. The data set can be described thus: WST-1 metabolic activity (cytotoxicity) in HepaRG cells. In kind it is cell-based, human. Conditions: 4 hr. Here is the method:
(§1) HepG2 and H‐4‐II‐E cells were differentiated for 24 hr. HepaRG cells were directly seeded in precoated 96‐well microtiter plates and were incubated in William's medium with general purpose supplements according to manufacturer's manual until adherence. All cells were treated with Ze 339 (up to 100 μg/ml) or petasin, isopetasin, neopetasin, petasol, isopetasol, petasin mixture, fatty acid mixture, and reconstituted extracts (up to 250 μM) for 4 hr.
(§2) In the three cell lines, cytotoxicity was defined as a decrease in metabolic activity of ≥20% in the WST‐1 assay. At the end of the experiment, 10 μl WST‐1 reagent was added to each well. Plates were then incubated for 2 hr to allow for the reduction of WST‐1 reagent. Absorbance was measured using a microplate absorbance reader (Infinite M 200, Tecan Trading Ltd., Switzerland) at 450 nm, reference wavelength of 620 nm. Due to some matrix effect, the lowest concentration (0.02 μg/ml for Ze 339 and 3.9 μM for single constituents and mixtures) of each substance tested was defined as 100% metabolic activity. Results were expressed as percentage of the control metabolic activity, and data were presented as mean values ± SEM (n = 3–6).
(§3) Concentration‐response analysis was done using the sigmoidal Hill equation: E(t) = E0 − Emax × C(t)^N/(IC50 ^N + C(t)^N), where E is the effect at time t, E0 the effect at baseline (time = 0), IC50 the concentration yielding 50% of the maximal effect (Emax), and N denotes the sigmoidicity coefficient (Origin 2017 Software). For statistical analysis, analysis of variance with Dunnett's multicomparison test was used to correct for multiplicity of testing (IBM SPSS Statistics software, version 25, IBM Corp., USA). The level of significance was ^* p < .05, ^** p < .01 and ^*** p < .001; NS = no significance.

The test system of another data set is HepG2 cells. Kind of data set: WST-1 metabolic activity (cytotoxicity) in HepG2 cells. In kind it is cell-based, human. Particulars: HepG2, up to 250 μM, 4 hr. Here is the method:
as §1, §2, §3
On the technique in general: Tetrazolium dyes change colour on reduction, which living cells bring about.

The subject of the next data set is H-4-II-E cells. The data set can be described thus: WST-1 metabolic activity (cytotoxicity) in H-4-II-E cells. It is filed as cell-based, rat (Rattus norvegicus). Here is the method: as §1, §2, §3
In data set [2] the test system is HepaRG cells. The data set can be described thus: Coincubation of Ze 339 with single cytochrome inhibitors in HepaRG cells (WST-1). Conditions: inhibitor 10 μM, Ze 339 100 μg/ml, 4 hr. It is filed as cell-based, human.
Protocol: To investigate whether metabolic activation by human phase I enzymes—at least in part—contributes to the cytotoxic effect, Ze 339 (concentrations up to 100 μg/ml) was coincubated in HepaRG cells for 4 hr with different single cytochromes inhibitors: ketoconazole (CYP3A4), sulfaphenazole (CYP2C9), montelukast (CYP2C8), omeprazole (CYP2C19), α‐naphthoflavone (CYP1A2), quinidine (CYP2D6), xanthotoxin (CYP2A6), chlormethiazole (CYP2E1), and ticlopidine (CYP2B6)—(each at a concentration of 10 μM). Inhibition of metabolic activity was evaluated with the WST‐1 assay using Ze 339 without inhibitor as a control.

The structures appear in SMILES notation.

In the case of `CC(C)=C1C[C@@]2(C)C(=CC1=O)CC[C@@H](O)[C@@H]2C` [isopetasol], the cytotoxicity result in the data set with HepaRG cells [1] (highest concentration) is given as “not cytotoxic”. Also, the cytotoxic effects entry in the data set on HepG2 cells is “did not show cytotoxic effects”. Moreover, the figures for the “change in metabolic activity” value in the data set with H-4-II-E cells (from 7.8 to 125 μM) and in the data set with H-4-II-E cells (highest concentration) were “increase in metabolic activity” and “virtually no change”, respectively.

As for `CC(C)(O)c1ccccc1CC[C@@H](SCC1(CC(=O)O)CC1)c1cccc(/C=C/c2ccc3ccc(Cl)cc3n2)c1` [montelukast], the “effect of cytochrome inhibitor on the cytotoxic effect of Ze 339” value with HepaRG cells [2] is “attenuated”.

In the case of `C=C(C)[C@@H]1C[C@@]2(C)C(=CC1=O)CC[C@@H](O)[C@@H]2C` [petasol], the metabolic activity with HepaRG cells [1] (250 μM) was 68.6%; in the data set on H-4-II-E cells (concentrations ≥125 μM), “up to 109%”. Besides, in the data set with HepG2 cells, the cytotoxic effects result is recorded as “did not show cytotoxic effects”. For the same molecule, in the data set on H-4-II-E cells (medium concentrations 15.6–62.5 μM), the “change in metabolic activity” value is reported as “slight decrease”.

As to `C=C[C@H]1C[N@@]2CC[C@H]1C[C@@H]2[C@@H](O)c1ccnc2ccc(OC)cc12` [quinidine], the “effect of cytochrome inhibitor on the cytotoxic effect of Ze 339” value in the data set on HepaRG cells [2] is “attenuated”.
